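The compound was tested at five concentrations on cells cultured in 96-well plates, with a 48-hour exposure period. GI50 = concentration required for 50% inhibition of growth.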 The source made the active and inactive calls. No stated cut-off is given here; in the data, active = GI50 up to about 1.1 µM and inactive = higher.
Tests used:
Test in all cases: inhibition of tumour cell growth, NCI panel, 48 h
COLO 205 = tested on: COLO 205
DU-145 = tested on: DU-145
HCT-116 = tested on: HCT-116
HT-29 = tested on: HT-29
K562 = tested on: K562
LOX IMVI = tested on: LOX IMVI
M14 = tested on: M14
NCI-H226 = tested on: NCI-H226
OVCAR-3 = tested on: OVCAR-3
PC-3 = tested on: PC-3
RPMI-8226 = tested on: RPMI-8226
RXF 393 = tested on: RXF 393
SF-268 = tested on: SF-268
SK-MEL-28 = tested on: SK-MEL-28
SN12C = tested on: SN12C
SR = tested on: SR
SW-620 = tested on: SW-620
TK-10 = tested on: TK-10
U-251 = tested on: U-251
UO-31 = tested on: UO-31

Structure (SMILES)	GI50 (COLO 205)	GI50 (DU-145)	GI50 (HCT-116)	GI50 (HT-29)	GI50 (K562)	GI50 (LOX IMVI)	GI50 (M14)	GI50 (NCI-H226)	GI50 (OVCAR-3)	GI50 (PC-3)	GI50 (RPMI-8226)	GI50 (RXF 393)	GI50 (SF-268)	GI50 (SK-MEL-28)	GI50 (SN12C)	GI50 (SR)	GI50 (SW-620)	GI50 (TK-10)	GI50 (U-251)	GI50 (UO-31)
N#C/C(=C\c1cc(O)c(O)c(O)c1)C(N)=O	> 100 µM (inactive)	97.7 µM (inactive)	> 70.1 µM (inactive)	> 92.7 µM (inactive)	62.2 µM (inactive)	41.3 µM (inactive)	> 90.2 µM (inactive)	> 100 µM (inactive)	> 72.8 µM (inactive)	> 22.2 µM (inactive)	> 100 µM (inactive)	> 100 µM (inactive)	67.3 µM (inactive)	> 100 µM (inactive)	> 84.3 µM (inactive)	> 47.5 µM (inactive)	> 84.5 µM (inactive)	> 100 µM (inactive)	> 87.5 µM (inactive)	> 74.1 µM (inactive)
Clc1ccc2c(SCC3CO3)c3ccccc3nc2c1 (stereo not given)	3.02 µM (inactive)	1.57 µM (inactive)	1.66 µM (inactive)	1.64 µM (inactive)	1.87 µM (inactive)	2.25 µM (inactive)	1.72 µM (inactive)	22.9 µM (inactive)	1.73 µM (inactive)	2.65 µM (inactive)	2.42 µM (inactive)	2.66 µM (inactive)	3.18 µM (inactive)	2.88 µM (inactive)	2.02 µM (inactive)	2.04 µM (inactive)	1.92 µM (inactive)	1.74 µM (inactive)	1.84 µM (inactive)	1.76 µM (inactive)
Cc1ccc(/C=N/Nc2cc(C)c3cccc(C)c3n2)s1	6.98 µM (inactive)	10.5 µM (inactive)	2.82 µM (inactive)	2.86 µM (inactive)	3.46 µM (inactive)	1.63 µM (inactive)	4.33 µM (inactive)	9.02 µM (inactive)	8.02 µM (inactive)	8.2 µM (inactive)	6.67 µM (inactive)	9.86 µM (inactive)	6.73 µM (inactive)	22.3 µM (inactive)	9.08 µM (inactive)	2.71 µM (inactive)	8.15 µM (inactive)	14.7 µM (inactive)	10.6 µM (inactive)	5.79 µM (inactive)
NCCCCC(N)C(=O)NCCNc1ccc(NCCNC(=O)C(N)CCCCN)c2c1C(=O)c1ccccc1C2=O (stereo not given)	> 59.8 µM (inactive)	> 100 µM (inactive)	17.3 µM (inactive)	50.7 µM (inactive)	> 33.4 µM (inactive)	9.35 µM (inactive)	> 100 µM (inactive)	> 21.7 µM (inactive)	> 100 µM (inactive)	81.1 µM (inactive)	31.8 µM (inactive)	9.86 µM (inactive)	> 100 µM (inactive)	> 100 µM (inactive)	4.11 µM (inactive)	4.91 µM (inactive)	71.8 µM (inactive)	> 94.4 µM (inactive)	35 µM (inactive)	32.3 µM (inactive)
O=C1C=C/C(=N/c2ccccc2)c2ccccc21	7.03 µM (inactive)	1.68 µM (inactive)	12.1 µM (inactive)	16.9 µM (inactive)	12.5 µM (inactive)	4.18 µM (inactive)	6.21 µM (inactive)	11.4 µM (inactive)	1.89 µM (inactive)	10.5 µM (inactive)	12.8 µM (inactive)	10.8 µM (inactive)	11.3 µM (inactive)	20.3 µM (inactive)	12.8 µM (inactive)	11.4 µM (inactive)	7.03 µM (inactive)	16.9 µM (inactive)	7.82 µM (inactive)	10.3 µM (inactive)
Cc1c2cccc-2c(OCCO)cc2c3ccccc3n(C)c12	1.69 µM (inactive)	6.79 µM (inactive)	3.16 µM (inactive)	4.24 µM (inactive)	3.72 µM (inactive)	2.77 µM (inactive)	3.44 µM (inactive)	5.58 µM (inactive)	1.46 µM (inactive)	3.18 µM (inactive)	2.81 µM (inactive)	5.57 µM (inactive)	4.02 µM (inactive)	3.73 µM (inactive)	3.13 µM (inactive)	2.34 µM (inactive)	4.08 µM (inactive)	10.7 µM (inactive)	1.87 µM (inactive)	2.57 µM (inactive)
O=C1/C(=C\c2ccc(Cl)cc2Cl)Sc2scc(-c3cccc([N+](=O)[O-])c3)[n+]21	0.59 µM (active)	14 µM (inactive)	5.2 µM (inactive)	3.28 µM (inactive)	3.1 µM (inactive)	1.55 µM (inactive)	6.04 µM (inactive)	13.5 µM (inactive)	8.13 µM (inactive)	15.6 µM (inactive)	4.48 µM (inactive)	6.25 µM (inactive)	9.1 µM (inactive)	14.6 µM (inactive)	5.33 µM (inactive)	2.58 µM (inactive)	3.62 µM (inactive)	4.07 µM (inactive)	13.9 µM (inactive)	3.47 µM (inactive)
CN(CCCN(C)Cc1ccc(Cl)c(Cl)c1)CCN1CCCC1	9.35 µM (inactive)	62.1 µM (inactive)	12 µM (inactive)	4.13 µM (inactive)	4.67 µM (inactive)	14.4 µM (inactive)	5.73 µM (inactive)	21.2 µM (inactive)	60.3 µM (inactive)	28.2 µM (inactive)	4.28 µM (inactive)	15.1 µM (inactive)	27.5 µM (inactive)	1.93 µM (inactive)	37.8 µM (inactive)	8.45 µM (inactive)	19.7 µM (inactive)	24.2 µM (inactive)	16.8 µM (inactive)	4.78 µM (inactive)
CC(=O)C1=CC=C/C1=N\Nc1ccccc1	9.42 µM (inactive)	14.9 µM (inactive)	4.99 µM (inactive)	3.83 µM (inactive)	3.94 µM (inactive)	2.84 µM (inactive)	10.8 µM (inactive)	17.3 µM (inactive)	3.22 µM (inactive)	5.45 µM (inactive)	1.98 µM (inactive)	11.6 µM (inactive)	7.43 µM (inactive)	14 µM (inactive)	5.81 µM (inactive)	0.543 µM (active)	3.82 µM (inactive)	7.14 µM (inactive)	2.97 µM (inactive)	13.1 µM (inactive)
CC1C/C(=N\N(C)C)C(C#N)(C#N)C1(C#N)C#N (stereo not given)	1.82 µM (inactive)	18.2 µM (inactive)	9.48 µM (inactive)	6.53 µM (inactive)	2.35 µM (inactive)	7.14 µM (inactive)	12.2 µM (inactive)	30.2 µM (inactive)	13.2 µM (inactive)	20.8 µM (inactive)	3.92 µM (inactive)	9.89 µM (inactive)	15.6 µM (inactive)	16 µM (inactive)	19 µM (inactive)	2.82 µM (inactive)	5.05 µM (inactive)	13.6 µM (inactive)	18.7 µM (inactive)	15.6 µM (inactive)
O=C(O)c1ccccc1C(=O)c1ccc2c(c1)Cc1ccccc1-2	57 µM (inactive)	> 100 µM (inactive)	73.5 µM (inactive)	48.8 µM (inactive)	57.9 µM (inactive)	85.7 µM (inactive)	> 100 µM (inactive)	36.1 µM (inactive)	> 100 µM (inactive)	66.4 µM (inactive)	60.8 µM (inactive)	> 100 µM (inactive)	> 100 µM (inactive)	53.7 µM (inactive)	> 100 µM (inactive)	91.6 µM (inactive)	> 100 µM (inactive)	52.1 µM (inactive)	54 µM (inactive)	> 100 µM (inactive)
CC(=O)OCc1ccc2c(c1)C(O)NC(=O)O2 (stereo not given)	> 100 µM (inactive)	> 100 µM (inactive)	52.8 µM (inactive)	> 100 µM (inactive)	31 µM (inactive)	47.2 µM (inactive)	> 100 µM (inactive)	96.6 µM (inactive)	21.8 µM (inactive)	> 100 µM (inactive)	19.8 µM (inactive)	> 100 µM (inactive)	> 100 µM (inactive)	> 100 µM (inactive)	50.7 µM (inactive)	10.4 µM (inactive)	72.8 µM (inactive)	> 100 µM (inactive)	58.6 µM (inactive)	> 100 µM (inactive)
O=c1oc2ccc(Cl)cc2cc1-c1cn2ccccc2n1	> 100 µM (inactive)	> 61.9 µM (inactive)	6.64 µM (inactive)	17.7 µM (inactive)	> 100 µM (inactive)	15 µM (inactive)	> 66.7 µM (inactive)	20.9 µM (inactive)	33.7 µM (inactive)	> 72.9 µM (inactive)	80.9 µM (inactive)	13.7 µM (inactive)	> 39.8 µM (inactive)	96.8 µM (inactive)	7.76 µM (inactive)	32.9 µM (inactive)	85.5 µM (inactive)	14.8 µM (inactive)	3.93 µM (inactive)	4.72 µM (inactive)
Cc1c2cc[n+](C)cc2c(C)c2c1oc1ccccc12	3.51 µM (inactive)	15.9 µM (inactive)	6.43 µM (inactive)	14.4 µM (inactive)	6.38 µM (inactive)	11.4 µM (inactive)	14.6 µM (inactive)	2.19 µM (inactive)	2.65 µM (inactive)	6.38 µM (inactive)	4.2 µM (inactive)	15.2 µM (inactive)	0.406 µM (active)	6.85 µM (inactive)	0.475 µM (active)	4.85 µM (inactive)	3 µM (inactive)	31.4 µM (inactive)	0.652 µM (active)	68.7 µM (inactive)

Source: ChEMBL document CHEMBL1201862, “PubChem BioAssay data set” (2004)
